Experimental data reported in PMC6609562, “A new split‐luciferase complementation assay identifies pentachlorophenol as an inhibitor of apoptosome formation” (FEBS Open Bio, 2019).
Read-outs that look alike come from different tables or passages of the source. Values belong to the molecule of their own block, whether it stands above or below them.

Experiments:
[1] = test system: T1, apoptosome (Nluc/Apaf-1 + Cluc/Apaf-1, cytochrome c, dATP); assay: split-luciferase complementation in S-100 extract; format: biochemical, Homo sapiens; conditions: 1.6 uM cytochrome c, 1 mM dATP, 25 °C; unreliable (reporter interference)
T1 construct: gene APAF1; Apaf-1 XL fused by Gly/Ser linker to firefly luciferase fragments (Nluc 1-416; Cluc 394-550 in legend, 395-550 in methods), expressed in HEK 293, S-100 extract
Source text: split-luciferase complementation in S-100 extract on apoptosome (Nluc/Apaf-1 + Cluc/Apaf-1, cytochrome c, dATP)

[2] = test system: T1, apoptosome (Nluc/Apaf-1 + Cluc/Apaf-1, cytochrome c, dATP); assay: split-luciferase complementation in S-100 extract; format: biochemical, Homo sapiens
cytochrome c = test system: T2, cytochrome c; assay: thermal stability shift, soluble protein by Coomassie SDS-PAGE; format: binding; conditions: destabilization at 58 °C, 1 mg/mL cytochrome c
T2 construct: gene CYCS

[3] = target: T3, Cluc-Apaf1 (Apaf-1 XL fused to the C-terminal fragment of firefly luciferase) (human), O14727; assay: split reporter (BiFC, NanoBiT); split firefly luciferase complementation; ice-cold S-100 extracts of Nluc-Apaf1 and Cluc-Apaf1 cells mixed 1:1, with and without 1.6 μM cytochrome c and 1 mM dATP (cytochrome c titrated in one experiment); One-Glo Luciferase Assay System, light read at 25 °C over 15 min; conditions: remark: other sources report otherwise
T3 chain: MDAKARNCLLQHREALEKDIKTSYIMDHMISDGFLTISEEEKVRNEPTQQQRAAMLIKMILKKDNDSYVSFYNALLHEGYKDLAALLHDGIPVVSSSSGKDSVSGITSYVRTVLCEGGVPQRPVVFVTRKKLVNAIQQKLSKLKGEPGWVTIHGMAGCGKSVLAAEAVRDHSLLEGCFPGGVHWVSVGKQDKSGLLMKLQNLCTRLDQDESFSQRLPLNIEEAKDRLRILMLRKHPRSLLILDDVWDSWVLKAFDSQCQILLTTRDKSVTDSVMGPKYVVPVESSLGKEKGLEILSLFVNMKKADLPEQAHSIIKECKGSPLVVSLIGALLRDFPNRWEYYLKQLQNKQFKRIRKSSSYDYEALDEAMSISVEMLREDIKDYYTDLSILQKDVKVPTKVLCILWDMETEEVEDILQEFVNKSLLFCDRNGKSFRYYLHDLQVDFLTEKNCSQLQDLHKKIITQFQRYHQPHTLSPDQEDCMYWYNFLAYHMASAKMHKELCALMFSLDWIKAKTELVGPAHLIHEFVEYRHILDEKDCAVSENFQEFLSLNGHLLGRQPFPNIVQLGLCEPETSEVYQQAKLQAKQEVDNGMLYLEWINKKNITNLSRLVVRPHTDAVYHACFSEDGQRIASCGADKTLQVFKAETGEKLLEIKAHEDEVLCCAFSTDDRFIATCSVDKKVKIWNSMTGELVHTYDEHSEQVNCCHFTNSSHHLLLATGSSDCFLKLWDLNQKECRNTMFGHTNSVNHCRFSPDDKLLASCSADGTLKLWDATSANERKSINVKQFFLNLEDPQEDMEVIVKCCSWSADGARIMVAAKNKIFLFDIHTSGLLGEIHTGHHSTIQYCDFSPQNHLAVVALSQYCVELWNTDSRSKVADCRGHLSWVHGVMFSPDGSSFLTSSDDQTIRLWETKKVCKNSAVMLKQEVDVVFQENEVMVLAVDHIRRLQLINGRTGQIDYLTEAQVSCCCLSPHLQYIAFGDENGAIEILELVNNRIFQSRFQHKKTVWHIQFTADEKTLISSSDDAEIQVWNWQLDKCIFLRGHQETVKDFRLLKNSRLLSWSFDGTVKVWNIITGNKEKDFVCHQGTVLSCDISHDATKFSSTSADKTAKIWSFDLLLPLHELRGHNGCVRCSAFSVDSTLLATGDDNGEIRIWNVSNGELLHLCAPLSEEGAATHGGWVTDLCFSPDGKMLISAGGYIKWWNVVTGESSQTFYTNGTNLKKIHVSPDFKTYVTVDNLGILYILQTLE

Molecule: CN(C)C1CSSSC1 [Thiocyclam]
IC50 (mM) / S. luc [1]: 0.20 mM

Molecule: Oc1c(Cl)c(Cl)c(Cl)c(Cl)c1Cl [Pentachlorophenol]
IC50 ([2]; 1.6 uM cytochrome c, 1 mM dATP, 25 °C, site assigned to cytochrome c, read-out: IC50 (mM) / S. luc): 0.17 mM
EC50 (cytochrome c): ~600 µM

Molecule: Clc1nc(Cl)nc(Nc2ccccc2Cl)n1 [Anilazine]
IC50 (mM) / S. luc [1]: 2.99 mM

IC50 ([2]; diluted extract, cytochrome c and dATP added, read-out: IC50): ~0.17 mM
Molecule: O=C(Nc1cccc(C(F)(F)F)c1)Nc1cc(Cl)ccc1C(=O)O [NS3694, 4‐chloro‐2‐[[3‐(trifluoromethyl)phenyl]carbamoylamino]benzoic acid]

Molecule: CN(C)C(=S)SSC(=S)N(C)C [Thiram]
IC50 (mM) / S. luc [1]: 1.38 mM

EC50 of cytochrome c for split luciferase activity [3]: 0.15 µM
B1: Nluc-Apaf1 (Apaf-1 XL fused to the N-terminal fragment of firefly luciferase), O14727-1 1-1248 (natural protein)
chain: T3 chain
